# Where two headings read alike, the source gives them in different places.
# Tests used:
# Type in all cases: cell-based, Pseudomonas aeruginosa
# [1] = system: P. aeruginosa PAO1; assay: MIC, CLSI broth microdilution, P. aeruginosa PAO1; conditions: for MIC: Pseudomonas aeruginosa
# Procedure: (§1) Antimicrobial Susceptibility Tests. Susceptibility testing was performed in biological triplicate, using the microdilution broth method as outlined by the Clinical and Laboratory Standards Institute. Bacteria were cultured with cation-adjusted Meuller-Hinton broth (Sigma-Aldrich; catalogue number: 90922) or Luria-Bertani (LB) broth (Lennox) in round-bottom 96-well plates (Corning; catalogue number: 3788).
# [2] = system: P. aeruginosa PA14; assay: MIC, P. aeruginosa PA14; conditions: Pseudomonas aeruginosa, PA14
# Procedure: as §1
# [3] = system: clinical isolates of P. aeruginosa; assay: MIC against panel of clinical isolates of P. aeruginosa; conditions: for MIC: Pseudomonas aeruginosa
# Procedure: as §1
# [4] = system: FA resistance mutants of P. aeruginosa PAO1 A6; assay: MIC in FA-resistant mutants; conditions: mutants generated in PAO1 A6
# Procedure: as §1
# Selection ofresistant mutants. Resistant mutants were selected using the large inoculum method. […] Colonies were visible after incubating at 37° C. for 72 h.
# [5] = system: P. aeruginosa PAO1; assay: DiSC3 (5) inner membrane depolarization assay
smiles,measurement,setting,value
"CC(=O)O[C@H]1C[C@@]2(C)[C@@H](C[C@@H](O)[C@H]3[C@@]4(C)CC[C@@H](O)[C@@H](C)[C@@H]4CC[C@@]32C)/C1=C(\CCC=C(C)C)C(=O)O/N=C(\N)CNCCCNCCCNCCCN [FA prodrug, (3R, 4S,5S,8S,9S,10S,11R,13R,14S,16S,Z)-17-((Z)-1,14-diamino-22-methyl-17-oxo-16-oxa-4,8,12,15-tetraazatricosa-14,21-dien-18-ylidene)-3,11-dihydroxy-4,8,10,14-tetramethylhexadecahydro-1H-cyclopenta[a]phenanthren-16-yl acetate]",MIC against P. aeruginosa PAO1,[1],4 µg/mL
same,Fold change (MIC),[1]; 5 mM MgCl2/CAMH versus CAMH (Table 10),32X
same,"MIC P. aeruginosa PAO1, CAMH",[1]; CAMH (Table 10),4 µg/mL
same,shift in MIC on co-treatment with 5 mM MgCl2,[1]; P. aeruginosa PAO1,32 -fold
same,increase in activity relative to FA,[1]; PAO1 MIC,256 -fold
same,MIC,[1]; PAO1,4 µg/mL
same,MIC,"[1]; PAO1, read-out: MIC P. aeruginosa PAO1",4 µg/mL
same,MIC,"[1]; PAO1, read-out: P. aeruginosa PAO1 MIC",4 µg/mL
same,"MIC P. aeruginosa PAO1, 5 mM MgCl2/CAMH",[1]; co-treatment 5 mM MgCl2 in CAMH (Table 10),128
same,MIC,[2],8 µg/mL
same,improved activity relative to FA against 75 clinical isolates,[3]; FIG. 5c,64-256 ×
same,MIC,[3]; AR Bank Isolate # 0054,16 µg/mL
same,MIC,[3]; AR Bank Isolate # 0064,16 µg/mL
same,MIC,[3]; AR Bank Isolate # 0090,16 µg/mL
same,MIC,[3]; AR Bank Isolate # 0092,16 µg/mL
same,MIC,[3]; AR Bank Isolate # 0095,16 µg/mL
same,MIC,[3]; AR Bank Isolate # 0100,16 µg/mL
same,MIC,[3]; AR Bank Isolate # 0103,16 µg/mL
same,MIC,[3]; AR Bank Isolate # 0110,16 µg/mL
same,MIC,[3]; AR Bank Isolate # 0229,16 µg/mL
same,MIC,[3]; AR Bank Isolate # 0230,16 µg/mL
same,MIC,[3]; AR Bank Isolate # 0231,8 µg/mL
same,MIC,[3]; AR Bank Isolate # 0232,16 µg/mL
same,MIC,[3]; AR Bank Isolate # 0233,16 µg/mL
same,MIC,[3]; AR Bank Isolate # 0234,8 µg/mL
same,MIC,[3]; AR Bank Isolate # 0235,8 µg/mL
same,MIC,[3]; AR Bank Isolate # 0236,16 µg/mL
same,MIC,[3]; AR Bank Isolate # 0237,16 µg/mL
same,MIC,[3]; AR Bank Isolate # 0239,8 µg/mL
same,MIC,[3]; AR Bank Isolate # 0240,16 µg/mL
same,MIC,[3]; AR Bank Isolate # 0241,16 µg/mL
same,MIC,[3]; AR Bank Isolate # 0242,8 µg/mL
same,MIC,[3]; AR Bank Isolate # 0243,16 µg/mL
same,MIC,[3]; AR Bank Isolate # 0244,16 µg/mL
same,MIC,[3]; AR Bank Isolate # 0245,16 µg/mL
same,MIC,[3]; AR Bank Isolate # 0246,8 µg/mL
same,MIC,[3]; AR Bank Isolate # 0248,8 µg/mL
same,MIC,[3]; AR Bank Isolate # 0250,16 µg/mL
same,MIC,[3]; AR Bank Isolate # 0252,16 µg/mL
same,MIC,[3]; AR Bank Isolate # 0254,32 µg/mL
same,MIC,[3]; AR Bank Isolate # 0265,16 µg/mL
same,MIC,[3]; AR Bank Isolate # 0763,16 µg/mL
same,MIC,[3]; AR Bank Isolate # 0767,16 µg/mL
same,MIC,[3]; AR Bank Isolate # 0769,16 µg/mL
same,MIC,[3]; AR Bank Isolate # 0772,8 µg/mL
same,MIC,[3]; Carle Isolate ID # Cl-02,8 µg/mL
same,MIC,[3]; Carle Isolate ID # Cl-03,8 µg/mL
same,MIC,[3]; Carle Isolate ID # Cl-04,16 µg/mL
same,MIC,[3]; Carle Isolate ID # Cl-05,8 µg/mL
same,MIC,[3]; Carle Isolate ID # Cl-06,8 µg/mL
same,MIC,[3]; Carle Isolate ID # Cl-07,8 µg/mL
same,MIC,[3]; Carle Isolate ID # Cl-08,8 µg/mL
same,MIC,[3]; Carle Isolate ID # Cl-09,8 µg/mL
same,MIC,[3]; Carle Isolate ID # Cl-10,16 µg/mL
same,MIC,[3]; Carle Isolate ID # Cl-11,8 µg/mL
same,MIC,[3]; Carle Isolate ID # Cl-12,8 µg/mL
same,MIC,[3]; Carle Isolate ID # Cl-13,16 µg/mL
same,MIC,[3]; Carle Isolate ID # Cl-14,8 µg/mL
same,MIC,[3]; Carle Isolate ID # Cl-15,8 µg/mL
same,MIC,[3]; Carle Isolate ID # Cl-19,8 µg/mL
same,MIC,[3]; Cubist Strain ID # 996,8 µg/mL
same,MIC,[3]; Cubist Strain ID # 997,8 µg/mL
same,MIC,[3]; Cubist Strain ID # 998,8 µg/mL
same,MIC,[3]; Cubist Strain ID # 999,8 µg/mL
same,MIC,[3]; Cubist Strain ID # 1000,16 µg/mL
same,MIC,[3]; Cubist Strain ID # 1001,16 µg/mL
same,MIC,[3]; Cubist Strain ID # 1174,16 µg/mL
same,MIC,[3]; Cubist Strain ID # 1175,16 µg/mL
same,MIC,[3]; Cubist Strain ID # 1176,16 µg/mL
same,MIC,[3]; Cubist Strain ID # 1280,16 µg/mL
same,MIC,[3]; Cubist Strain ID # 1282,16 µg/mL
same,MIC,[3]; Cubist Strain ID # 1283,16 µg/mL
same,MIC,[3]; Cubist Strain ID # 1284,16 µg/mL
same,MIC,[3]; Cubist Strain ID # 1586,16 µg/mL
same,MIC,[3]; Cubist Strain ID # 1590,32 µg/mL
same,MIC,[3]; Cubist Strain ID # 1591,32 µg/mL
same,MIC,[3]; Cubist Strain ID # 1592,32 µg/mL
same,MIC,[3]; Cubist Strain ID # 1905,16 µg/mL
same,MIC,[3]; Cubist Strain ID # 1906,16 µg/mL
same,MIC,[3]; Cubist Strain ID # 2242,8 µg/mL
same,MIC,[3]; Cubist Strain ID # 2243,16 µg/mL
same,MIC,[3]; Cubist Strain ID # 2244,8 µg/mL
same,MIC,[3]; Other strains (ref.) 1113,16 µg/mL
same,MIC,[3]; Other strains (ref.) 1727,8 µg/mL
same,MIC fold change in FA-resistant strains,[4],several fold change
same,inner membrane depolarization (DiSC3 (5) fluorescence),[5],dose-dependent inner membrane depolarization
